Tests used:
[1] = DLS detection of grain size, PDI and zeta potential of vesicles; type: physicochemical; settings: for PDI / d(nm) / zeta potential (mV): vesicles of the derivative, depolymerization and assembly repeated three times; for grain size of the vesicles: vesicles assembled once, pH below 7.2, FIG. 5
Description: • ① In this test example, the grain sizes of vesicle compounds formed by three compounds, LA-PEG2-BPA, LA-PEG4-BPA, and LA-PEG4-3-BPA, were detected.
Preparation of the vesicle nanoparticles to be detected for grain size in this test example includes: An appropriate amount of the corresponding compound was weighed and placed into a sample vial, double-distilled water was added, an appropriate amount of NaOH aqueous solution was added to adjust the pH to between 10 and 11 until the starting material was completely dissolved, followed by addition of an appropriate amount of hydrochloric acid to adjust the pH to below 7.2, thereby completing vesicle assembly.
② The lipoic acid derivatives were separately assembled into vesicles, including LA-PEG1-BPA (denoted as L^pB-1), LA-PEG2-BPA (denoted as L^pB-2), LA-PEG4-BPA (denoted as L^pB-3), LA-PEG8-BPA (denoted as L^pB-4), LA-PEG1-3-BPA (denoted as L^mB-1), LA-PEG2-3-BPA (denoted as L^mB-2), LA-PEG4-3-BPA (denoted as L^mB-3), and LA-PEG8-3-BPA (denoted as L^mB-4); the vesicle assembly method in this test example was based on the preparation method of the vesicle examples and depolymerization and assembly were repeatedly three times; the physicochemical properties of the self-assembled vesicles were detected, and the grain size, polymer dispersancy index (PDI), and zeta potential of the vesicles were detected using DLS (dynamic light scattering) technology. Table 1 […]

[2] = Critical aggregation concentration by Nile Red fluorescence; type: physicochemical; settings: Nile Red 1.0 µM, distilled water
Description: A mixture of Nile Red (at a concentration of 1.0 µM) and the corresponding BPA lipoic acid derivative (at a concentration of 0-20 mM) in distilled water was oscillated overnight under constant temperature conditions. The fluorescence emission intensity of Nile Red at 525 nm wavelength (λex = 485 nm) was measured using a FluoroMax-4 fluorometer. The critical aggregation concentration of the BPA lipoic acid derivative in aqueous medium was calculated from the intersection point of two linear regression equations.
The critical aggregation concentration (CAC) refers to the minimum concentration at which a substance forms aggregates in an aqueous solution. When the concentration of a surfactant or colloidal particle in an aqueous solution exceeds the critical aggregation concentration, they begin to self-assemble into aggregates due to intermolecular attractive forces. This process is referred to as aggregation or self-assembly.

Row | PDI [1] | d(nm) [1] [nm] | zeta potential (mV) [1] [mV] | CAC [2] [µM] | grain size of the vesicles [1] | Structure (SMILES)
1 | 0.107 | 98.9 | -32.5 | 243 |  | O=C(CCCCC1CCSS1)NCCOCCC(=O)NC(Cc1ccc(B(O)O)cc1)C(=O)O (stereo not drawn) [L^pB-1]
2 | 0.237 | 284.6 | -35.2 | 280 |  | O=C(CCCCC1CCSS1)NCCOCCOCCOCCOCCOCCOCCOCCOCCC(=O)NC(Cc1cccc(B(O)O)c1)C(=O)O (stereo not drawn) [L^mB-4]
3 | 0.209 | 165.7 | -35.20 | 274 | approximately 114 nm | O=C(CCCCC1CCSS1)NCCOCCOCCOCCOCCC(=O)NC(Cc1cccc(B(O)O)c1)C(=O)O (stereo not drawn) [L^mB-3]
4 | 0.015 | 144.7 | -30.9 | 248 | approximately 244 nm | O=C(CCCCC1CCSS1)NCCOCCOCCC(=O)NC(Cc1ccc(B(O)O)cc1)C(=O)O (stereo not drawn) [L^pB-2]
5 | 0.102 | 149.1 | -28.61 | 254 |  | O=C(CCCCC1CCSS1)NCCOCCOCCC(=O)NC(Cc1cccc(B(O)O)c1)C(=O)O (stereo not drawn) [L^mB-2]
6 | 0.217 | 268.4 | -29.35 | 277 |  | O=C(CCCCC1CCSS1)NCCOCCOCCOCCOCCOCCOCCOCCOCCC(=O)NC(Cc1ccc(B(O)O)cc1)C(=O)O (stereo not drawn) [L^pB-4]
7 | 0.132 | 105.3 | -30.7 | 256 |  | O=C(CCCCC1CCSS1)NCCOCCC(=O)NC(Cc1cccc(B(O)O)c1)C(=O)O (stereo not drawn) [L^mB-1]
